Measurements from patent US20230085307A1, “PYRIDAZINONE COMPOUND AND HERBICIDE” (NISSAN CHEMICAL CORPORATION, priority 2019, published 2023).

Legend:
[1] = test system: late watergrass; test: Test Example 1: herbicidal activity, application before weed generation under submerged conditions (Table 16, symbol A); type: in vivo, late watergrass (Echinochloa oryzicola)
In short: (§1)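 Alluvial soil was flooded to 4 cm depth, weed seeds were sown mixed and 2.5-leaf rice seedlings were transplanted. On sowing day, the compound's emulsion, diluted in water to a set dose, was applied to the water surface. Plants grew at 25–30 °C and were scored 0–5 after three weeks.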

[2] = test system: Japanese bulrush; test: Test Example 1: herbicidal activity, application before weed generation under submerged conditions (Table 16, symbol B); type: in vivo, Japanese bulrush (Schoenoplectus juncoides)
In short: as §1

[3] = test system: oval-leafed pondweed; test: Test Example 1: herbicidal activity, application before weed generation under submerged conditions (Table 16, symbol C); type: in vivo, oval-leafed pondweed (Monochoria vaginalis)
In short: as §1

[4] = test system: barnyard grass; test: Test Example 3: herbicidal effect by foliage application, Wagner pot (Table 18, symbol H); type: in vivo, barnyard grass (Echinochloa crus-galli)
In short: (§2)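 Plants were sown in alluvial soil held under 0.1–0.5 cm standing water and grown 14 days in a greenhouse at 25–30 °C. An emulsifiable formulation, water-diluted to the set dose, was then sprayed onto the foliage, and effects were scored three weeks later using previously defined criteria.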

[5] = test system: Chinese sprangletop; test: Test Example 3: herbicidal effect by foliage application, Wagner pot (Table 18, symbol D); type: in vivo, chinese sprangletop (Leptochloa chinensis)
In short: as §2

[6] = test system: rice flat sedge; test: Test Example 3: herbicidal effect by foliage application, Wagner pot (Table 18, symbol E); type: in vivo, rice flat sedge (Cyperus iria)
In short: as §2

[7] = test system: southern crabgrass; test: Test Example 4: herbicidal effect by soil treatment (Table 19, symbol F); type: in vivo, southern crabgrass (Digitaria ciliaris)
In short: (§3)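 Emulsion of test compound, water-diluted to predetermined amount, sprayed on soil after sowing (seed depth ~1.5 cm, sterilized diluvial soil). Greenhouse, 25–30° C. Effect graded at three weeks post-spray.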

[8] = test system: green foxtail; test: Test Example 4: herbicidal effect by soil treatment (Table 19, symbol G); type: in vivo, green foxtail (Setaria viridis)
In short: as §3

[9] = test system: barnyard grass; test: Test Example 4: herbicidal effect by soil treatment (Table 19, symbol H); type: in vivo, barnyard grass (Echinochloa crus-galli)
In short: as §3

[10] = test system: wild oat; test: Test Example 4: herbicidal effect by soil treatment (Table 19, symbol I); type: in vivo, wild oat (Avena fatua)
In short: as §3

[11] = test system: blackgrass; test: Test Example 4: herbicidal effect by soil treatment (Table 19, symbol J); type: in vivo, blackgrass (Alopecurus myosuroides)
In short: as §3

[12] = test system: Italian ryegrass; test: Test Example 4: herbicidal effect by soil treatment (Table 19, symbol K); type: in vivo, Italian ryegrass (Lolium multiflorum)
In short: as §3

[13] = test system: windgrass; test: Test Example 4: herbicidal effect by soil treatment (Table 19, symbol L); type: in vivo, windgrass (Apera spica-venti)
In short: as §3

[14] = test system: velvetleaf; test: Test Example 4: herbicidal effect by soil treatment (Table 19, symbol M); type: in vivo, velvetleaf (Abutilon theophrasti)
In short: as §3

[15] = test system: redroot pigweed; test: Test Example 4: herbicidal effect by soil treatment (Table 19, symbol N); type: in vivo, redroot pigweed (Amaranthus retroflexus)
In short: as §3

[16] = test system: lambsquarters; test: Test Example 4: herbicidal effect by soil treatment (Table 19, symbol O); type: in vivo, lambsquarters (Chenopodium album)
In short: as §3

[17] = test system: chickweed; test: Test Example 4: herbicidal effect by soil treatment (Table 19, symbol P); type: in vivo, common chickweed (Stellaria media)
In short: as §3

[18] = test system: persian speedwell; test: Test Example 4: herbicidal effect by soil treatment (Table 19, symbol R); type: in vivo, Persian speedwell (Veronica persica)
In short: as §3

[19] = test system: southern crabgrass; test: Test Example 5: herbicidal effect by foliage application, plastic box (Table 20, symbol F); type: in vivo, southern crabgrass (Digitaria ciliaris); details: foliage application, three weeks after application
In short: (§4)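 Post-emergence foliar test in sterilized diluvial soil. Compound applied as water-diluted emulsion at a predetermined rate to 14-day-old plants; evaluation at three weeks.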

[20] = test system: green foxtail; test: Test Example 5: herbicidal effect by foliage application, plastic box (Table 20, symbol G); type: in vivo, green foxtail (Setaria viridis); details: foliage application, three weeks after application
In short: as §4

[21] = test system: barnyard grass; test: Test Example 5: herbicidal effect by foliage application, plastic box (Table 20, symbol H); type: in vivo, barnyard grass (Echinochloa crus-galli); details: foliage application, three weeks after application
In short: as §4

[22] = test system: wild oat; test: Test Example 5: herbicidal effect by foliage application, plastic box (Table 20, symbol I); type: in vivo, wild oat (Avena fatua); details: foliage application, three weeks after application
In short: as §4

[23] = test system: blackgrass; test: Test Example 5: herbicidal effect by foliage application, plastic box (Table 20, symbol J); type: in vivo, blackgrass (Alopecurus myosuroides); details: foliage application, three weeks after application
In short: as §4

[24] = test system: Italian ryegrass; test: Test Example 5: herbicidal effect by foliage application, plastic box (Table 20, symbol K); type: in vivo, Italian ryegrass (Lolium multiflorum); details: foliage application, three weeks after application
In short: as §4

[25] = test system: windgrass; test: Test Example 5: herbicidal effect by foliage application, plastic box (Table 20, symbol L); type: in vivo, windgrass (Apera spica-venti); details: foliage application, three weeks after application
In short: as §4

[26] = test system: velvetleaf; test: Test Example 5: herbicidal effect by foliage application, plastic box (Table 20, symbol M); type: in vivo, velvetleaf (Abutilon theophrasti); details: foliage application, three weeks after application
In short: as §4

[27] = test system: redroot pigweed; test: Test Example 5: herbicidal effect by foliage application, plastic box (Table 20, symbol N); type: in vivo, redroot pigweed (Amaranthus retroflexus); details: foliage application, three weeks after application
In short: as §4

[28] = test system: lambsquarters; test: Test Example 5: herbicidal effect by foliage application, plastic box (Table 20, symbol O); type: in vivo, lambsquarters (Chenopodium album); details: foliage application, three weeks after application
In short: as §4

[29] = test system: chickweed; test: Test Example 5: herbicidal effect by foliage application, plastic box (Table 20, symbol P); type: in vivo, common chickweed (Stellaria media); details: foliage application, three weeks after application
In short: as §4

[30] = test system: persian speedwell; test: Test Example 5: herbicidal effect by foliage application, plastic box (Table 20, symbol R); type: in vivo, Persian speedwell (Veronica persica); details: foliage application, three weeks after application
In short: as §4

[31] = amount of applied herbicide 320 g/ha

## COCOc1c(C)nn(C)c(=O)c1-c1c(-c2ccc(OCc3ccccc3)cc2)sc2ccccc12 [1-135]
[1]; 320 g/ha applied herbicide
  Herbicidal effect on A: late watergrass (grade 0-5): 4 (Herbicidal rate of 70% or more and less than 90%)
[2]; 320 g/ha applied herbicide
  Herbicidal effect on B: Japanese bulrush (grade 0-5): 3 (Herbicidal rate of 40% or more and less than 70%)
[3]; 320 g/ha applied herbicide
  Herbicidal effect on C: oval-leafed pondweed (grade 0-5): 3 (Herbicidal rate of 40% or more and less than 70%)
[4]; 320 g/ha
  herbicidal effect on H (barnyard grass), rating 0-5: 2 (Herbicidal rate of 20% or more and less than 40%)
[5]; 320 g/ha
  herbicidal effect on D (Chinese sprangletop), rating 0-5: 3 (Herbicidal rate of 40% or more and less than 70%)
[6]; 320 g/ha
  herbicidal effect on E (rice flat sedge), rating 0-5: 3 (Herbicidal rate of 40% or more and less than 70%)
[7]; AAH 320 g/ha
  F: southern crabgrass, herbicidal effect rating: 2 (Herbicidal rate of 20% or more and less than 40%)
[8]; AAH 320 g/ha
  G: green foxtail, herbicidal effect rating: 0 (Herbicidal rate of 5% or less (almost no effect))
[9]; AAH 320 g/ha
  H: barnyard grass, herbicidal effect rating: 0 (Herbicidal rate of 5% or less (almost no effect))
[10]; AAH 320 g/ha
  I: wild oat, herbicidal effect rating: 0 (Herbicidal rate of 5% or less (almost no effect))
[11]; AAH 320 g/ha
  J: blackgrass, herbicidal effect rating: 0 (Herbicidal rate of 5% or less (almost no effect))
[12]; AAH 320 g/ha
  K: Italian ryegrass, herbicidal effect rating: 0 (Herbicidal rate of 5% or less (almost no effect))
[13]; AAH 320 g/ha
  L: windgrass, herbicidal effect rating: 0 (Herbicidal rate of 5% or less (almost no effect))
[14]; AAH 320 g/ha
  M: velvetleaf, herbicidal effect rating: 0 (Herbicidal rate of 5% or less (almost no effect))
[15]; AAH 320 g/ha
  N: redroot pigweed, herbicidal effect rating: 0 (Herbicidal rate of 5% or less (almost no effect))
[16]; AAH 320 g/ha
  O: lambsquarters, herbicidal effect rating: 0 (Herbicidal rate of 5% or less (almost no effect))
[17]; AAH 320 g/ha
  P: chickweed, herbicidal effect rating: 0 (Herbicidal rate of 5% or less (almost no effect))
[18]; AAH 320 g/ha
  R: persian speedwell, herbicidal effect rating: 3 (Herbicidal rate of 40% or more and less than 70%)
[19]; AAH 320 g/ha
  F: southern crabgrass, herbicidal effect: 0 (Herbicidal rate of 5% or less (almost no effect))
[20]; AAH 320 g/ha
  G: green foxtail, herbicidal effect: 4 (Herbicidal rate of 70% or more and less than 90%)
[21]; AAH 320 g/ha
  H: barnyard grass, herbicidal effect: 1 (Herbicidal rate of 5% or more and less than 20%)
[22]; AAH 320 g/ha
  I: wild oat, herbicidal effect: 0 (Herbicidal rate of 5% or less (almost no effect))
[23]; AAH 320 g/ha
  J: blackgrass, herbicidal effect: 0 (Herbicidal rate of 5% or less (almost no effect))
[24]; AAH 320 g/ha
  K: Italian ryegrass, herbicidal effect: 0 (Herbicidal rate of 5% or less (almost no effect))
[25]; AAH 320 g/ha
  L: windgrass, herbicidal effect: 0 (Herbicidal rate of 5% or less (almost no effect))
[26]; AAH 320 g/ha
  M: velvetleaf, herbicidal effect: 2 (Herbicidal rate of 20% or more and less than 40%)
[27]; AAH 320 g/ha
  N: redroot pigweed, herbicidal effect: 5 (Herbicidal rate of 90% or more (almost completely withered))
[28]; AAH 320 g/ha
  O: lambsquarters, herbicidal effect: 5 (Herbicidal rate of 90% or more (almost completely withered))
[29]; AAH 320 g/ha
  P: chickweed, herbicidal effect: 5 (Herbicidal rate of 90% or more (almost completely withered))
[30]; AAH 320 g/ha
  R: persian speedwell, herbicidal effect: 4 (Herbicidal rate of 70% or more and less than 90%)

## CCCC(=O)Oc1c(CC)nn(C)c(=O)c1-c1c(-c2ccc(F)cc2)sc2ccc(F)cc12 [2-407]
[1]; [31]
  Herbicidal effect, A: late watergrass: 3 (Herbicidal rate of 40% or more and less than 70%)
[2]; [31]
  Herbicidal effect, B: Japanese bulrush: 0 (Herbicidal rate of 5% or less (almost no effect))
[3]; [31]
  Herbicidal effect, C: oval-leafed pondweed: 0 (Herbicidal rate of 5% or less (almost no effect))
[4]; [31]
  herbicidal effect on H: barnyard grass: 5 (Herbicidal rate of 90% or more (almost completely withered))
[5]; [31]
  herbicidal effect on D: Chinese sprangletop: 4 (Herbicidal rate of 70% or more and less than 90%)
[6]; [31]
  herbicidal effect on E: rice flat sedge: 4 (Herbicidal rate of 70% or more and less than 90%)
[7]; [31]
  herbicidal effect, F: southern crabgrass: 0 (Herbicidal rate of 5% or less (almost no effect))
[8]; [31]
  herbicidal effect, G: green foxtail: 1 (Herbicidal rate of 5% or more and less than 20%)
[9]; [31]
  herbicidal effect, H: barnyard grass: 0 (Herbicidal rate of 5% or less (almost no effect))
[10]; [31]
  herbicidal effect, I: wild oat: 0 (Herbicidal rate of 5% or less (almost no effect))
[11]; [31]
  herbicidal effect, J: blackgrass: 0 (Herbicidal rate of 5% or less (almost no effect))
[12]; [31]
  herbicidal effect, K: Italian ryegrass: 0 (Herbicidal rate of 5% or less (almost no effect))
[13]; [31]
  herbicidal effect, L: windgrass: 0 (Herbicidal rate of 5% or less (almost no effect))
[14]; [31]
  herbicidal effect, M: velvetleaf: 0 (Herbicidal rate of 5% or less (almost no effect))
[15]; [31]
  herbicidal effect, N: redroot pigweed: 3 (Herbicidal rate of 40% or more and less than 70%)
[16]; [31]
  herbicidal effect, O: lambsquarters: 1 (Herbicidal rate of 5% or more and less than 20%)
[17]; [31]
  herbicidal effect, P: chickweed: 1 (Herbicidal rate of 5% or more and less than 20%)
[18]; [31]
  herbicidal effect, R: persian speedwell: 0 (Herbicidal rate of 5% or less (almost no effect))
[19]; 320 g/ha
  F: southern crabgrass, herbicidal effect grade: 0 (Herbicidal rate of 5% or less (almost no effect))
[20]; 320 g/ha
  G: green foxtail, herbicidal effect grade: 5 (Herbicidal rate of 90% or more (almost completely withered))
[21]; 320 g/ha
  H: barnyard grass, herbicidal effect grade: 3 (Herbicidal rate of 40% or more and less than 70%)
[22]; 320 g/ha
  I: wild oat, herbicidal effect grade: 0 (Herbicidal rate of 5% or less (almost no effect))
[23]; 320 g/ha
  J: blackgrass, herbicidal effect grade: 0 (Herbicidal rate of 5% or less (almost no effect))
[24]; 320 g/ha
  K: Italian ryegrass, herbicidal effect grade: 3 (Herbicidal rate of 40% or more and less than 70%)
[25]; 320 g/ha
  L: windgrass, herbicidal effect grade: 0 (Herbicidal rate of 5% or less (almost no effect))
[26]; 320 g/ha
  M: velvetleaf, herbicidal effect grade: 5 (Herbicidal rate of 90% or more (almost completely withered))
[27]; 320 g/ha
  N: redroot pigweed, herbicidal effect grade: 5 (Herbicidal rate of 90% or more (almost completely withered))
[28]; 320 g/ha
  O: lambsquarters, herbicidal effect grade: 3 (Herbicidal rate of 40% or more and less than 70%)
[29]; 320 g/ha
  P: chickweed, herbicidal effect grade: 5 (Herbicidal rate of 90% or more (almost completely withered))
[30]; 320 g/ha
  R: persian speedwell, herbicidal effect grade: 5 (Herbicidal rate of 90% or more (almost completely withered))
